Assays:
Test in all cases: relative viability (nuclei count vs DMSO), 5 days (fraction); higher = more cells survive
Sulindac + Pictilisib = compound: CC1=C(CC(=O)O)c2cc(F)ccc2/C1=C\c1ccc([S+](C)[O-])cc1 [Sulindac] + CS(=O)(=O)N1CCN(Cc2cc3nc(-c4cccc5[nH]ncc45)nc(N4CCOCC4)c3s2)CC1 [Pictilisib] (partner 1 µM)
How it was run: (§1)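 After 5 days of treatment, lung cancer cells in 1536-well plates were fixed and stained in a single step (final 0.05% Triton X-100, 1% formaldehyde, 1 ug/ml Hoechst) and their nuclei counted on 4× images. Treatment had been applied by pin tool the day after seeding as one drug alone or as a fixed anchor-drug dose with five library-drug doses (not always all listed) in √10 steps. Relative viability is the nuclei count of treated wells divided by that of vehicle wells, and values are medians of duplicate plates.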

[1] = compound: O=c1[nH]cc(F)c(=O)[nH]1 [5-Fluorouracil] + COc1cc2c(Oc3ccc(NC(=O)C4(C(=O)Nc5ccc(F)cc5)CC4)cc3F)ccnc2cc1OCCCN1CCOCC1 [Foretinib] (partner 0.25 µM)
How it was run: as §1

[2] = compound: CN[C@@H]1C[C@H]2O[C@@](C)([C@@H]1OC)n1c3ccccc3c3c4c(c5c6ccccc6n2c5c31)C(=O)NC4 [Staurosporine] + C[C@]1(O)C[C@@H](c2nc(-c3ccc4ccc(-c5ccccc5)nc4c3)c3c(N)nccn32)C1 [Linsitinib] (partner 1 µM)
How it was run: as §1

[3] = compound: CN[C@@H]1C[C@H]2O[C@@](C)([C@@H]1OC)n1c3ccccc3c3c4c(c5c6ccccc6n2c5c31)C(=O)NC4 [Staurosporine] + Nc1nc2[nH]cc(CCc3ccc(C(=O)N[C@@H](CCC(=O)O)C(=O)O)cc3)c2c(=O)[nH]1 [Pemetrexed] (partner 0.2 µM)
How it was run: as §1

UMC-11 gave a relative viability (Sulindac + Pictilisib; first compound 0.08 µM) of 1.18, a relative viability (Sulindac + Pictilisib; first compound 0.253 µM) of 0.816 and a relative viability (Sulindac + Pictilisib; first compound 0.8 µM) of 0.704. The relative viability (Sulindac + Pictilisib; first compound 2.53 µM) was 0.667, the relative viability (Sulindac + Pictilisib; first compound 8 µM) was 0.793 and the relative viability ([1]; first compound 0.02 µM) was 0.983. It also gave a relative viability ([1]; first compound 0.2 µM) of 0.728, a relative viability ([1]; first compound 0.6325 µM) of 0.518 and a relative viability ([1]; first compound 2 µM) of 0.396. For the same cell line, the relative viability ([2]; first compound 0.005 µM) was 0.901, the relative viability ([2]; first compound 0.01581 µM) was 0.569 and the relative viability ([2]; first compound 0.05 µM) was 0.583. It also gave a relative viability ([2]; first compound 0.1581 µM) of 0.126, a relative viability ([2]; first compound 0.5 µM) of 0.0837 and a relative viability ([3]; first compound 0.005 µM) of 0.695. For the same cell line, the relative viability ([3]; first compound 0.01581 µM) was 0.472, the relative viability ([3]; first compound 0.05 µM) was 0.387 and the relative viability ([3]; first compound 0.1581 µM) was 0.104. The relative viability ([3]; first compound 0.5 µM) was 0.0932.
